Assays:
[1] = tested on: Plasmodium falciparum; assay: ST_JUDE: Plasmodium falciparum 3D7 EC50 (uM) as measured by SYBR green dye; format: functional, organism-based
[2] = tested on: Plasmodium falciparum; assay: ST_JUDE: Plasmodium falciparum K1 EC50 (uM) as measured by SYBR green dye; format: functional, organism-based

| Compound | EC50 [1] [µM] | EC50 [2] [µM] |
| --- | --- | --- |
| Cc1cccc(/C=C/c2ccc3cccc(O)c3n2)c1O | 4.68 | 1.33 |
| CO/C(O)=C1\C(C)=NC2=C(C(=O)CC(c3ccccc3Cl)C2)C1c1ccc(OC)c(OC)c1 (centres undefined) | > 15 | 9.39 |
| Cc1cccc(CN2C(=O)/C(=C\c3ccc(C(=O)NC4CCCC4)cc3)Sc3ccccc32)c1 | 3.99 | 4.69 |
| O=C(/C=C/c1ccco1)Nc1ccc(C(F)(F)F)cc1 | > 15 | > 15 |
| COc1ccc2nc(C)cc(Nc3ccc(Cl)c(Cl)c3)c2c1 | 1.14 | 4.84 |
| CN1CCN(c2nc(Nc3ccc(SC(F)F)cc3)c3cnn(-c4ccccc4)c3n2)CC1 | 1.31 | 3.72 |
| CCC1(C)CC(CCNCc2ccc(F)cc2)(c2ccc(F)cc2)CCO1 (centres undefined) | 1.15 | 0.518 |
| CC(=O)NC(c1ccc(Cl)cc1)c1ccc2cccnc2c1O (centres undefined) | 1.93 | 2.15 |
| COc1ccc(-c2cc(=O)oc3c(OC)c(OC)ccc23)cc1 | > 15 | > 15 |
| CC(C)C[C@@H](CO)Nc1c2ccccc2nc2ccccc12 | 2.85 | 4.3 |
| Oc1ccc(I)cc1/C=C/c1cc(O)c2ccccc2n1 | > 15 | 5.34 |
| CCN(CC)c1cc(C)nc(Nc2ccc(NS(=O)(=O)c3cc(C)ccc3OC)cc2)n1 | 4.17 | > 15 |
| Cc1c(C)n(CC(O)CNC2CCCCC2C)c2ccccc12 (centres undefined) | 0.527 | 0.35 |
| COCCN1C(=O)c2ccccc2C(C(=O)Nc2ccc(F)c(Cl)c2)C1c1cccs1 (centres undefined) | 2.59 | 2.6 |
| CS(=O)(=O)Nc1ccc2c(c1)CCCN2C(=O)c1cccs1 | > 15 | 7.55 |
| Cc1ccc(NC(=O)c2csc3c2CCCCC3)c(C)c1 | 1.77 | > 15 |
| CCOC(=O)c1ccc(OCC2c3cc(OC)c(OC)cc3CCN2C(=O)Nc2ccccc2)cc1 (centres undefined) | 4.03 | 0.776 |
| OCCC1CN(Cc2c(F)cccc2F)CCN1Cc1ccc(F)cc1 (centres undefined) | > 15 | > 15 |

| Compound | EC50 [1] [µM] | EC50 [2] [µM] |
| --- | --- | --- |
| COc1cccc(C2=C(C(C)=O)Sc3nnc(C)n3N2C(C)=O)c1 | 6.59 | 5.95 |
| Cc1cc(Cl)c(S(=O)(=O)N(C)C)cc1OCC(=O)Nc1ccccc1 | > 15 | > 15 |
| COc1ccc(CCNC(=S)Nc2cc(Cl)ccc2Cl)cc1OC | 3.43 | 2.94 |
| CC1CCN(Cc2cc(COCc3ccccc3)c3cccnc3c2O)CC1 | 2.87 | 3.19 |
| CCOC(=O)C1=C(C)N=c2s/c(=C\c3ccc(O)c(OC)c3)c(=O)n2C1c1ccc(F)cc1 (centres undefined) | > 15 | 2.26 |
| CCOc1ccc2nc(C)cc(Nc3ccc(N4CCOCC4)cc3)c2c1 | 0.982 | 6.36 |
| COCCCNc1nc2cc(OC)c(OC)cc2c2nc(-c3ccccc3)nn12 | 0.0855 | > 15 |
| Cc1cccc(OCC(=O)Nc2cccc(-c3nnc(-c4ccccc4)o3)c2)c1 | > 15 | > 15 |
| Cc1cccc(N2COc3ccc(C(C)(C)C)cc3C2)c1 | > 15 | > 15 |
| Cc1ccc2c(c1)N(C)/C(=C/c1cccc[n+]1CCO)S2 | 1.78 | 1.56 |
| Cn1c(-c2ccccc2)[n+](C)c2ccccc21 | 11.7 | 8.29 |
| COCCn1/c(=N/C(=O)COc2ccccc2)sc2cc(OC)ccc21 | > 15 | > 15 |
| CCOC(=O)c1ccc2nc(C)c(CN3CCN(C(c4ccccc4)c4ccccc4)CC3)c(O)c2c1 | > 15 | > 15 |
| Cc1ccc(-n2cc(CN3CCCC(C(N)=O)C3)c(-c3cccc(C)c3)n2)cc1 (centres undefined) | 5.24 | 4.22 |
| O=C(NCCN1CCOCC1)C(=O)Nc1ccc(F)cc1F | > 15 | > 15 |
| Cc1ccc(C(=O)Nc2ccc3c(c2)N(S(=O)(=O)c2ccc(F)cc2)CCC3)cc1 | > 15 | > 15 |
| O=C(Nc1ccc(Cl)c(Cl)c1)Nc1ccc(Cl)c([N+](=O)[O-])c1 | > 15 | > 15 |
| Cc1ccccc1NC(=O)Nc1ccnn1C1CCN(Cc2ccc(OC(C)C)cc2)CC1 | 6.74 | > 15 |

Next, values leading:

| EC50 [1] [µM] | EC50 [2] [µM] | Compound |
| --- | --- | --- |
| > 15 | 4.38 | O=C1CC(c2ccc(Cl)c(Cl)c2)C2=C(CC(c3ccc(F)cc3)CC2=O)N1 (centres undefined) |
| > 15 | 5.25 | COc1cccc(C(=O)NC(c2ccc([N+](=O)[O-])cc2)c2c(O)ccc3ccccc23)c1 (centres undefined) |
| > 15 | > 15 | Cc1nc2c3cc(F)ccc3n(C)c2s1 |
| > 15 | 1.38 | CCOc1ccc(-c2nonc2NC(=O)c2ccccc2C)cc1OCC |
| > 15 | > 15 | Cc1ccc(CNC(=O)/C=C/c2ccc([N+](=O)[O-])cc2)cc1 |
| 2.48 | > 15 | CCOC(=O)c1c(N)n(-c2ccc(F)cc2)c2nc3ccccc3nc12 |
| 1.73 | 2.5 | CC(C)CC(=O)NC(NC(=S)Nc1cccc(Cl)c1)C(Cl)(Cl)Cl (centres undefined) |
| > 15 | > 15 | COc1ccc(N2CCN(C3CCCN(Cc4cccc(SC)c4)C3)CC2)cc1 (centres undefined) |
| 3.14 | 2.16 | CCOC(=O)c1oc2c(c1C)-c1nn(Cc3ccc(C)cc3)cc1CC2 |
| > 15 | 5.45 | COc1cccc(NC(=O)Cn2c3ccccc3c(=O)c3cc(Cl)ccc32)c1 |
| 3.75 | 3.96 | COc1ccc(CCNC(=S)Nc2ccccc2C)cc1OC |
| > 15 | > 15 | CCCCCC/N=C1\CC(C)(C)CC(O)=C1C(=O)CCCN1C(=O)c2ccccc2C1=O |
| 1.08 | 0.607 | C#CC[n+]1ccn2cccc2c1C |
| 1.62 | 1.75 | O=[N+]([O-])c1ccc2ncnc(Nc3cc(Cl)ccc3O)c2c1 |
| > 15 | > 15 | CCOCCn1/c(=N/C(=O)COc2ccc(Cl)cc2)sc2cc(OCC)ccc21 |
| 1.4 | 0.55 | C=CCN1C=CC(=Cc2ccc3cc(C)ccc3[n+]2CC)C=C1 |
| > 15 | > 15 | CCN(CC)C(=O)c1ccc2c(c1)N(Cc1ccccc1)C(=O)c1ccccc1S2(=O)=O |
| 8.04 | > 15 | COC(=O)C1=CNC=C(C(=O)OC)C1c1ccc(F)c(F)c1 |

| EC50 [1] [µM] | EC50 [2] [µM] | Compound |
| --- | --- | --- |
| > 15 | > 15 | CCOC(=O)c1c(NC(=O)C(c2ccccc2)c2ccccc2)sc(C(=O)N(CC)CC)c1C |
| 2.2 | 3.43 | CCCC(=O)NC(c1ccccc1OC)c1ccc2cccnc2c1O (centres undefined) |
| > 15 | > 15 | Cc1cc(NC(=O)CSc2ccc3nnc(-c4ccc(Cl)cc4)n3n2)no1 |
| > 15 | > 15 | CCCN(CCC)CCCNC(=O)c1ccc2c(Cl)c3c(nc2c1)CCCC3 |
| > 15 | > 15 | CCN(CC)CCCNc1nc(-c2ccc(Cl)cc2)nc2ccccc12 |
| 2.1 | 3.73 | COc1ccc(C2C(C(=O)Nc3cc(C)ccc3OC)c3ccccc3C(=O)N2C)cc1 (centres undefined) |
| 4.76 | 1.5 | COc1ccc(C(NC(=O)c2cccnc2)c2cc(Cl)c3cccnc3c2O)cc1 (centres undefined) |
| 0.35 | > 15 | CN(C)CCCNCc1ccc2[nH]c3ccccc3c2c1 |
| > 15 | 3.41 | O=C(C1CCCCC1)N(Cc1cccnc1)c1nc2ccc(F)cc2s1 |
| 2.85 | 4.26 | CCOc1ccccc1NC(=S)N1CCN(c2ccc(OC)cc2)C(C)C1 (centres undefined) |
| 2.3 | > 15 | N=C(N/N=C\c1ccc(Br)cc1)N/N=C\c1ccc(Br)cc1 |
| 1.75 | 2.02 | CC(=O)c1cccc(NC(=O)C2c3ccccc3C(=O)N(C3CCCC3)C2c2cccs2)c1 (centres undefined) |
| > 15 | > 15 | Cc1cc(/C=N/n2cnnc2)c(C)n1-c1ccc(Br)cc1 |
| 1.19 | 2.64 | CCOc1ccc(Nc2nc(NCc3ccco3)c3ccccc3n2)cc1 |
| 1.65 | 3.01 | CCCCC(=O)NC(c1ccc(N(CC)CC)cc1)c1ccc2cccnc2c1O (centres undefined) |
| 4.03 | 3.44 | CCOc1c(Br)cc(C2C(C(=O)OC)=CN(C(C)C)C=C2C(=O)OC)cc1OC |
| 3.19 | 3.54 | CN(C)CCNC(=O)c1ccc2c(c1)sc1nc(-c3ccc(F)cc3)cn12 |
| 4.83 | 2.93 | COC(=O)c1ccc(OCC2c3cc(OC)c(OC)cc3CCN2C(=O)Nc2ccccc2)cc1 (centres undefined) |

Source: ChEMBL document CHEMBL1154198, “Chemical genetics of Plasmodium falciparum” (Nature, 2010)
